# According to PubChem BioAssay AID256 (DTP/NCI, 2004):
# Values joined by “and” are separate entries in the source; they are usually repeats but may differ in a detail not shown here. Equal entries are not always repeated. Inconclusive results and toxic doses are left out.
# Test system: CD2F1 mice, L1210 leukemia ip, survival T/C
# Experiment: NCI In Vivo Anticancer Drug Screen. Data for tumor model L1210 Leukemia (intraperitoneal) in CD2F1 (CDF1) mice
# Details: higher = longer survival
# In short: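 Mice carrying a transplanted tumor received test compound or vehicle alone. The value is the measurement in the treated group divided by that in the vehicle-treated control group.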
# [1] = endpoint: mean survival time, dose: 100.0 mg/kg/injection, schedule: Q04DX003 (ip), vehicle: saline with Tween-80
# [2] = endpoint: mean survival time, dose: 100.0 mg/kg/injection, schedule: Q01DX009 (ip), vehicle: saline with Tween-80
# [3] = endpoint: mean survival time, dose: 200.0 mg/kg/injection, schedule: Q01DX009 (ip), vehicle: saline with Tween-80
# [4] = endpoint: mean survival time, dose: 200.0 mg/kg/injection, schedule: Q04DX003 (ip), vehicle: saline with Tween-80
# [5] = endpoint: mean survival time, dose: 400.0 mg/kg/injection, schedule: Q04DX003 (ip), vehicle: saline with Tween-80
# [6] = endpoint: mean survival time, dose: 100.0 mg/kg/injection, schedule: Q01DX009 (ip), vehicle: saline
# [7] = endpoint: mean survival time, dose: 200.0 mg/kg/injection, schedule: Q01DX009 (ip), vehicle: saline
# [8] = endpoint: mean survival time, dose: 100.0 mg/kg/injection, schedule: Q01DX001 (ip), vehicle: saline
# [9] = endpoint: mean survival time, dose: 200.0 mg/kg/injection, schedule: Q01DX001 (ip), vehicle: saline
# [10] = endpoint: mean survival time, dose: 400.0 mg/kg/injection, schedule: Q01DX001 (ip), vehicle: saline
# [11] = endpoint: mean survival time, dose: 50.0 mg/kg/injection, schedule: Q01DX009 (ip), vehicle: saline with Tween-80
smiles,measurement,setting,value
O=S(=O)(F)c1ccccc1,T/C,"endpoint: mean survival time, dose: 25.0 mg/kg/injection, schedule: Q04DX003 (ip), vehicle: saline with Tween-80",95 % of control
same,T/C,"endpoint: mean survival time, dose: 50.0 mg/kg/injection, schedule: Q04DX003 (ip), vehicle: saline with Tween-80",100 % of control
same,T/C,[1],95 % of control and 97 % of control
COC(=O)C12OCC34C(CC5C(C)C6=CC(=O)OC6=CC5(C)C3C(O)C1O)OC(=O)C(O)C24 (stereo not given),T/C,"endpoint: median survival time, dose: 0.25 mg/kg/injection, schedule: Q01DX005 (ip), vehicle: Klucel (hydroxypropylcellulose) (HPC)",112 % of control
same,T/C,"endpoint: median survival time, dose: 0.5 mg/kg/injection, schedule: Q01DX005 (ip), vehicle: Klucel (hydroxypropylcellulose) (HPC)",114 % of control
COC1C2CCC1N(C)CC2 (stereo not given),T/C,"endpoint: mean survival time, dose: 37.5 mg/kg/injection, schedule: Q04DX002 (ip), vehicle: saline with Tween-80",106 % of control
same,T/C,"endpoint: mean survival time, dose: 75.0 mg/kg/injection, schedule: Q04DX002 (ip), vehicle: saline with Tween-80",98 % of control
same,T/C,"endpoint: mean survival time, dose: 150.0 mg/kg/injection, schedule: Q04DX002 (ip), vehicle: saline with Tween-80",117 % of control
same,T/C,"endpoint: mean survival time, dose: 300.0 mg/kg/injection, schedule: Q04DX002 (ip), vehicle: saline with Tween-80",95 % of control
COc1ccc(CC(=O)O)cc1OC,T/C,[2],94 % of control
same,T/C,[3],103 % of control
same,T/C,"endpoint: mean survival time, dose: 400.0 mg/kg/injection, schedule: Q01DX009 (ip), vehicle: saline with Tween-80",89 % of control
CCCCCCCCCCCc1nc(N)n[nH]1,T/C,[1],98 % of control
same,T/C,[4],102 % of control
same,T/C,[5],102 % of control
COC(=O)c1ccc(-c2ccccc2)cc1,T/C,"endpoint: mean survival time, dose: 25.0 mg/kg/injection, schedule: Q01DX009 (ip), vehicle: Klucel (hydroxypropylcellulose) (HPC)",96 % of control
same,T/C,"endpoint: mean survival time, dose: 50.0 mg/kg/injection, schedule: Q01DX009 (ip), vehicle: Klucel (hydroxypropylcellulose) (HPC)",102 % of control
same,T/C,"endpoint: mean survival time, dose: 100.0 mg/kg/injection, schedule: Q01DX009 (ip), vehicle: Klucel (hydroxypropylcellulose) (HPC)",103 % of control
same,T/C,"endpoint: mean survival time, dose: 200.0 mg/kg/injection, schedule: Q01DX009 (ip), vehicle: Klucel (hydroxypropylcellulose) (HPC)",105 % of control
same,T/C,"endpoint: mean survival time, dose: 400.0 mg/kg/injection, schedule: Q01DX009 (ip), vehicle: Klucel (hydroxypropylcellulose) (HPC)",102 % of control
CC(=O)OC1CCC2(C)C(=CCC3C2CCC2(C)C3CC3OC4(CCC(C)CO4)C(C)C32)C1 (stereo not given),T/C,"endpoint: mean survival time, dose: 100.0 mg/kg/injection, schedule: Q04DX003 (ip), vehicle: other",95 % of control
same,T/C,"endpoint: mean survival time, dose: 200.0 mg/kg/injection, schedule: Q04DX003 (ip), vehicle: other",94 % of control
same,T/C,"endpoint: mean survival time, dose: 400.0 mg/kg/injection, schedule: Q04DX003 (ip), vehicle: other",94 % of control
CSc1nc(N)c(N=O)c(=O)[nH]1,T/C,"endpoint: mean survival time, dose: 100.0 mg/kg/injection, schedule: Q01DX001 (ip), vehicle: Klucel (hydroxypropylcellulose) (HPC)",98 % of control
same,T/C,"endpoint: mean survival time, dose: 200.0 mg/kg/injection, schedule: Q01DX001 (ip), vehicle: Klucel (hydroxypropylcellulose) (HPC)",100 % of control
same,T/C,"endpoint: mean survival time, dose: 400.0 mg/kg/injection, schedule: Q01DX001 (ip), vehicle: Klucel (hydroxypropylcellulose) (HPC)",109 % of control
COC(=O)C1C(O)C(C)C(O)OC1C(C)C(O)C(C)/C=C\C=C(/C)C(=O)Nc1c(C)c(OC(C)=O)c2c(c1O)C(=O)C(C)=C1OCOC(/C(C)=C/C(C)=O)=C12 (stereo not given),T/C,[6],97 % of control
same,T/C,[7],101 % of control
O=[N+]([O-])c1cccc(N=C(c2ccccc2)N(O)c2ccccc2)c1,T/C,[8],100 % of control
same,T/C,"endpoint: mean survival time, dose: 100.0 mg/kg/injection, schedule: Q04DX003 (ip), vehicle: saline",102 % of control
same,T/C,[9],100 % of control
same,T/C,"endpoint: mean survival time, dose: 200.0 mg/kg/injection, schedule: Q04DX003 (ip), vehicle: saline",97 % of control
same,T/C,[10],100 % of control
same,T/C,"endpoint: mean survival time, dose: 400.0 mg/kg/injection, schedule: Q04DX003 (ip), vehicle: saline",103 % of control
ClC1C(Cl)(Cl)C1(Cl)Cl,T/C,"endpoint: mean survival time, dose: 37.5 mg/kg/injection, schedule: Q01DX001 (ip), vehicle: saline",100 % of control
same,T/C,"endpoint: mean survival time, dose: 75.0 mg/kg/injection, schedule: Q01DX001 (ip), vehicle: saline",102 % of control
same,T/C,"endpoint: mean survival time, dose: 150.0 mg/kg/injection, schedule: Q01DX001 (ip), vehicle: saline",95 % of control
CC1=NCCc2c1cc1c([nH]c3ccccc31)c2C,T/C,"endpoint: mean survival time, dose: 44.0 mg/kg/injection, schedule: Q01DX009 (ip), vehicle: saline with Tween-80",114 % of control
same,T/C,"endpoint: mean survival time, dose: 67.0 mg/kg/injection, schedule: Q01DX009 (ip), vehicle: saline with Tween-80",96 % of control
Cc1[nH]c(=O)[nH]c(=O)c1NC(=O)c1ccccc1[N+](=O)[O-],T/C,"endpoint: mean survival time, dose: 12.5 mg/kg/injection, schedule: Q01DX009 (ip), vehicle: saline with Tween-80",98 % of control
same,T/C,"endpoint: mean survival time, dose: 12.5 mg/kg/injection, schedule: Q04DX003 (ip), vehicle: saline sonified",100 % of control
same,T/C,"endpoint: mean survival time, dose: 25.0 mg/kg/injection, schedule: Q01DX009 (ip), vehicle: saline with Tween-80",104 % of control
same,T/C,"endpoint: mean survival time, dose: 25.0 mg/kg/injection, schedule: Q04DX003 (ip), vehicle: saline sonified",103 % of control
same,T/C,[11],97 % of control
same,T/C,"endpoint: mean survival time, dose: 50.0 mg/kg/injection, schedule: Q04DX003 (ip), vehicle: saline sonified",94 % of control
O=C1NC(=O)C([N+](=O)[O-])=C(O)C1=O,T/C,"endpoint: mean survival time, dose: 50.0 mg/kg/injection, schedule: Q01DX009 (ip), vehicle: saline",102 % of control
same,T/C,[6],93 % of control
same,T/C,[7],90 % of control
C[C@]12C=CC(=O)C=C1CC[C@@H]1[C@@H]2[C@@H](O)C[C@@]2(C)[C@H]1CC[C@]2(O)C(=O)CO,T/C,"endpoint: mean survival time, dose: 12.5 mg/kg/injection, schedule: Q01DX010 (sc), vehicle: steriod suspending solution",108 % of control
same,T/C,"endpoint: mean survival time, dose: 25.0 mg/kg/injection, schedule: Q01DX009 (sc), vehicle: steriod suspending solution",106 % of control and 109 % of control
same,T/C,"endpoint: mean survival time, dose: 25.0 mg/kg/injection, schedule: Q01DX010 (sc), vehicle: steriod suspending solution",108 % of control
same,T/C,"endpoint: mean survival time, dose: 50.0 mg/kg/injection, schedule: Q01DX009 (sc), vehicle: steriod suspending solution",113 % of control and 106 % of control
same,T/C,"endpoint: mean survival time, dose: 50.0 mg/kg/injection, schedule: Q01DX010 (sc), vehicle: steriod suspending solution",112 % of control
same,T/C,"endpoint: mean survival time, dose: 100.0 mg/kg/injection, schedule: Q01DX009 (sc), vehicle: steriod suspending solution",116 % of control
same,T/C,"endpoint: mean survival time, dose: 100.0 mg/kg/injection, schedule: Q01DX010 (sc), vehicle: steriod suspending solution",108 % of control
same,T/C,"endpoint: mean survival time, dose: 200.0 mg/kg/injection, schedule: Q01DX009 (sc), vehicle: steriod suspending solution",113 % of control and 116 % of control
CCCC/C=C\C1CCCCC1C (stereo not given),T/C,[11],87 % of control
same,T/C,[2],96 % of control
same,T/C,[3],104 % of control
CC(=O)ON(C(C)=O)c1ccc(S(=O)(=O)c2ccc(N(OC(C)=O)C(C)=O)cc2)cc1,T/C,[6],92 % of control
same,T/C,[7],90 % of control
same,T/C,"endpoint: mean survival time, dose: 400.0 mg/kg/injection, schedule: Q01DX009 (ip), vehicle: saline",89 % of control
Cn1nc2ccccc2c1C#N,T/C,"endpoint: mean survival time, dose: 50.0 mg/kg/injection, schedule: Q01DX001 (ip), vehicle: saline",102 % of control
same,T/C,[8],103 % of control
same,T/C,[9],96 % of control
C1CC[N-]CC1.CC(=N\O)/C(C)=N/O.CC(=N\O)/C(C)=N/O.C[CH-]C(C)O.[Co+2],T/C,"endpoint: mean survival time, dose: 6.25 mg/kg/injection, schedule: Q04DX003 (ip), vehicle: saline",97 % of control
CN(C)/N=N/c1[nH]ncc1C(N)=O,T/C,"endpoint: mean survival time, dose: 150.0 mg/kg/injection, schedule: Q01DX001 (oral), vehicle: saline",121 % of control
same,T/C,"endpoint: mean survival time, dose: 1200.0 mg/kg/injection, schedule: Q01DX001 (oral), vehicle: saline",158 % of control
CCCCCCCCCCCCCCCCCCC(C)c1ccccc1 (stereo not given),T/C,"endpoint: mean survival time, dose: 100.0 mg/kg/injection, schedule: Q01DX001 (ip), vehicle: saline with Tween-80",101 % of control
same,T/C,"endpoint: mean survival time, dose: 200.0 mg/kg/injection, schedule: Q01DX001 (ip), vehicle: saline with Tween-80",97 % of control
same,T/C,"endpoint: mean survival time, dose: 400.0 mg/kg/injection, schedule: Q01DX001 (ip), vehicle: saline with Tween-80",101 % of control
O=C1CC(c2ccccc2)OC(c2ccccc2Cl)C1 (stereo not given),T/C,[1],94 % of control
same,T/C,[4],97 % of control
same,T/C,[5],94 % of control
CC/C(=C\c1ccc(Cl)cc1)[N+](=O)[O-],T/C,"endpoint: mean survival time, dose: 12.5 mg/kg/injection, schedule: Q04DX003 (ip), vehicle: Klucel (hydroxypropylcellulose) (HPC)",102 % of control
same,T/C,"endpoint: mean survival time, dose: 25.0 mg/kg/injection, schedule: Q04DX003 (ip), vehicle: Klucel (hydroxypropylcellulose) (HPC)",97 % of control
same,T/C,"endpoint: mean survival time, dose: 50.0 mg/kg/injection, schedule: Q04DX003 (ip), vehicle: Klucel (hydroxypropylcellulose) (HPC)",97 % of control
Cc1nc(N)[nH]c(=O)c1Cc1ccccc1O,T/C,[8],100 % of control
same,T/C,[9],97 % of control
same,T/C,[10],97 % of control
